According to patent publication US10633388B2, “Pyrazolopyrimidone derivatives and methods of use thereof” (Shanghai Hengrui Pharmaceutical Co., Ltd., priority 2013, dated 2020):

What was measured:
monkey GnRHr = monkey GnRHr (Macaca fascicularis, UniProt A0A2K5WH82); test: Monkey GnRHr inhibitory activity assay, Fluo-4 calcium signal in stably transfected CHO cells; format: cell-based; details: GnRH polypeptide stimulation, read-out: IC50, inhibition of the activity of Monkey GnRHr
Protocol: This assay was used to determine the inhibition effect of the present compounds on the activity of monkey GnRHr protein expressed by monkey GnRHr/CHO stably transfected cell lines.
A mammalian expression vector containing the monkey GnRHr gene was transferred into CHO cells by adding Lipofectamine®LTX reagent containing Plus™. Antibiotics were added the next day for screening to pick out the monoclonal cell lines.
The monkey GnRHr/CHO stably transfected cell lines were inoculated in 96-well plates with an inoculation density of 25,000 cells/well. The culture medium was removed the next day, and loading buffer containing Fluo-4 dye was added to the plate ([…]) and incubated for 30 minutes at 37° C. The plate was moved to room temperature and equilibrated for 10 minutes. Each compound was diluted with DMSO to seven concentration gradients of 100 μM, 10 μM, 1 μM, 0.1 μM, 0.01 μM, 0.001 μM, 0.0001 μM. […] After automated addition of 50 μL of GnRH polypeptide stimulant solution, the value was immediately detected at 494/516 […] by a microplate reader (flexstation 3). IC50 values of the compounds were calculated by software from different fluorescence signals at various corresponding concentrations.
The inhibitory activity of the present compounds on monkey GnRHr was determined by the above assay, and IC50 values are shown in Table 1.

ectopic endometrium = test: In vivo pharmacodynamics test in rabbit endometriosis model; parameters: species or system New Zealand rabbits
Excerpt: Fifteen (15) healthy New Zealand rabbits (female) were evenly designated into 3 groups.
Rabbits were adaptive fed and quarantined for seven days, and subcutaneously injected with 30 g/kg of estradiol benzoate once daily for two days before surgery. When the model was established, rabbits were anesthetized with 3% sodium pentobarbital, and laparotomized sterilely. Then, one side of the uterus was separated and ligated with the uterine mesorectum vessel. Then, a section of the uterus was cut off and put into a warm saline dish, and then dissected longitudinally and the myometrium and endometrium were separated. A section of endometrium (about 0.5 cm by 0.5 cm) was seamed to the abdominal wall rich in blood vessels with the intimal surface facing toward the abdominal cavity. Three weeks after endometrium planting, the rabbits were laparotomized to check graft intimal size. […] Each group was administered by oral gavage once a day in a volume of 5 ml/kg, continuously for 28 days after successful modeling. Ultimately, the rabbit was weighed and the volume of ectopic endometrium was measured to evaluate the effect of the present compound on the endometrial activity.

[1] = Rabbit pharmacokinetics assay; format: in vivo, New Zealand rabbits; details: rabbits
Protocol: (§1) Rabbits were used as test animals. The plasma concentrations at various times were determined by LC/MS/MS after intragastric administration of the compound of Example 11, and intravenous administration of the compound of Example 11 to rabbits. The pharmacokinetic behavior of the present compound in rabbits was studied, and the pharmacokinetic features were evaluated.
Six (6) healthy New Zealand Rabbits (female) were evenly designated into 2 groups. The animals were purchased from Jie Sijie Corp. Ltd.
An appropriate amount of sample was weighed, and added with 0.5% CMC-Na to form […] suspension upon ultrasonic treatment.
Appropriate amounts of drugs were weighed, and dissolved with 1 ml DMSO and 1 ml of Tween 80. Saline solution was added to the final volume. […]
0.2 ml of blood was sampled before and 5 minutes, 0.25, 0.5, 1, 2, 4, 8, 11, 24 hours after intravenous administration, collected in a heparinized test tube, and centrifuged at 3500 rpm for 10 minutes to separate the plasma, which was stored at −20° C. […] The content of the test compound in the plasma of rabbits after administration of the compound by oral gavage and intravenous injection was determined by LC/MS/MS.

[2] = Rat pharmacokinetics assay; format: in vivo; details: both sexes, Sprague-Dawley, plasma, SD rats, oral 10 mg/kg vs i.v. 5 mg/kg, read-out: Oral Bioavailability F
Protocol: Sprague-Dawley (SD) rats were used as test animals. The plasma concentrations at various times were determined by LC/MS/MS after intragastric administration of compounds of Example 2, Example 3, Example 5, Example 9, Example 10, Example 11, and Example 13, and intravenous administration of the compound of Example 11 to the rats. The pharmacokinetic behavior of the present compounds in rats was studied, and the pharmacokinetic features were evaluated.
Thirty-two (32) healthy adult SD rats (half female and half male) were evenly designated into 8 groups (4 for each group). The animals were purchased from Shanghai Super B&K Laboratory Animal Corp. Ltd (laboratory animal production Certificate No. SCXK (HU)2008-0016).
An appropriate amount of sample was weighed, and added with 0.5% CMC-Na to form a 1 mg/ml suspension upon ultrasonic treatment.
Appropriate amounts of drugs were weighed, and dissolved with 0.5 ml DMSO and 0.5 ml of Tween 80. Saline solution was added to the final volume. […]
The content of the test compound in the plasma of rats after administration of the compound by oral gavage was determined by LC/MS/MS.

[3] = Beagle pharmacokinetics assay; format: in vivo; details: beagles
Protocol: as §1, with “Beagles” for “Rabbits”, “beagles.” for “rabbits.”, “beagles” for “rabbits”
Eight (8) healthy beagles (half female and half male) were evenly designated into 2 groups. The animals were purchased from SuzhouXishan Zhongke Laboratory Animal Corp. Ltd.
An appropriate amount of sample was weighed, and added with 0.5% CMC-Na to form a 1.0 mg/ml suspension upon ultrasonic treatment;
Appropriate amounts of drugs were weighed, and dissolved with 5 ml DMSO and 5 ml of Tween 80. Saline solution was added to the final volume. […]
1.0 ml of blood was sampled from the foreleg vein before, and 0.25, 0.5, 1, 2, 4, 6, 8, 12, and 24 hours after oral administration, collected in a heparinized test tube, and centrifuged at 3500 rpm for 10 minutes to separate the plasma, which was stored at −20° C. […] The content of the test compound in the plasma of beagles after administration of the compound by oral gavage and intravenous injection was determined by LC/MS/MS.

[4] = Seven-day toxicokinetic evaluation in rats; format: in vivo, SD rats
Protocol: SD rats were used as test animals. The plasma concentration at various times was determined by LC/MS/MS after administration of the compound of Example 11 (SHR147280) by oral gavage for 7 days. The compound toxicity in rodents was preliminarily assessed according to the potential toxicity reaction and severity level of the body.
Twenty-four (24) healthy adult SD rats (half female and half male) were evenly designated into 4 groups (6 for each group). The animals were purchased from Shanghai SLAC Laboratory Animal Corp. Ltd (laboratory animal production Certificate No. SCXK (HU) 2012-0002).
An appropriate amount of sample was accurately weighed, and added with some 0.5% CMC-Na to form an uniform suspension upon ultrasonicator grinding treatment, and then diluted to the final volume. The test sample solutions on day 1 and day 7 were kept for the determination of administration concentration of toxicokinetics.
Repeat oral doses were 80, 240, and 720 mg/kg, and administration concentrations were 8, 24, and 72 mg/ml respectively. The dosing volume was 10 ml/kg once daily for 7 days.
The blood was sampled on day 1 and day 7 after administration with sampling time before, and 1, 2, 4, 8 and 24 hours after oral administration on day 1, as well as before, and 1, 2, 4, 8, 24 and 48 hours after oral administration on day 7. The blood sample was collected in a heparinized test tube, and centrifuged to separate the plasma, which was stored at −20° C. The content of the test compound in the plasma of rats after administration of the compound by oral gavage was determined by LC/MS/MS.

[5] = women with endometriosis, 150 or 250 mg qd, vs leuprorelin depot 3.75 mg sc monthly or placebo; cited from earlier work

monkey GnRHr, sequence (A0A2K5WH82 1-328): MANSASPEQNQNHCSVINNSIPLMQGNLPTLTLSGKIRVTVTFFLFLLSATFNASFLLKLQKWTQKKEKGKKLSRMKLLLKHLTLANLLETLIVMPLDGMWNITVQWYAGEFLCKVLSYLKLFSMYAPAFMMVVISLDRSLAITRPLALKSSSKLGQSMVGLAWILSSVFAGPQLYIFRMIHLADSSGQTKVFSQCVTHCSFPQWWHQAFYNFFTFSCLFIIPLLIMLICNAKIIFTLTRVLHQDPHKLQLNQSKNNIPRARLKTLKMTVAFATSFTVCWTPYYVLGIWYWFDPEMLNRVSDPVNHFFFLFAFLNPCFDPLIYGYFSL

CNC(=O)Nc1ccc(-n2nc3c(c2CN(C)C)c(=O)n(-c2ccc(OC)nn2)c(=O)n3Cc2c(F)cccc2F)cc1 [Example 9, 1-(4-(7-(2,6-difluorobenzyl)-3-((dimethylamino)methyl)-5-(6-methoxypyridazin-3-yl)-4,6-dioxo-4,5,6,7-tetrahydro-2H-pyrazolo[3,4-d]pyrimidin-2-yl)phenyl)-3-methylurea] showed an IC50 (monkey GnRHr) of 23.2 nM.

For CONC(=O)Nc1ccc(-n2nc3c(c2CN(C)C)c(=O)n(-c2ccc(OC)nn2)c(=O)n3Cc2c(F)cccc2F)cc1 [Example 11, 1-(4-(7-(2,6-difluorobenzyl)-3-((dimethylamino)methyl)-5-(6-methoxypyridazin-3-yl)-4,6-dioxo-4,5,6,7-tetrahydro-2H-pyrazolo[3,4-d]pyrimidin-2-yl)phenyl)-3-methoxyurea], the “inhibition for the ectopic endometrial volume” value (ectopic endometrium; 10 mg/kg oral once daily for 4 weeks) was “not obvious”, the “growth of ectopic endometrium” value (ectopic endometrium; 30 mg/kg oral once daily for 4 weeks, vs 0.5% CMC-Na control) was “significantly inhibited” and the bioavailability ([1]; female, New Zealand, rabbit, plasma, oral 30 mg/kg vs intravenous injection 5 mg/kg, read-out: Oral Bioavailability F) was 92.9%. The “Apparent volume of distribution Vz/F” value ([1]; oral 30 mg/kg) was 10.719 ± 3.862 L/kg, the bioavailability [2] was 76.6% and the “Clearance rate CL/F” value ([3]; oral 5 mg/kg) was 14.7 ± 4.2 mL/min/kg. For the same molecule, the bioavailability ([3]; both sexes, beagle, dog, plasma, oral 5 mg/kg vs i.v. 2 mg/kg, read-out: Oral Bioavailability F) was 104%, the Death ([4]; both, SD, rat, in vivo, po, 720 mg/kg, 7 days) was “died on day 7 before dosing” and the lethal dose ([4]; both, SD, rat, in vivo, po, 7 days) was 720 mg/kg. For the same molecule, the “MRT0-∞” value ([4]; female, SD, rat, in vivo, po, 240 mg/kg) was 9.63 h, the “safety window: NOAEL dose ratio (toxicological pharmacokinetic dose/pharmacodynamic dose)” value ([4]; rat 240 mg/kg / rabbit 30 mg/kg, preliminary evaluation) was 240/30 = 8 and the urine indexes ([4]; rat, in vivo) was “no regularly abnormal changes”. For the same molecule, the “Blood biochemistry: ALB (albumin) and ALP (alkaline phosphatase)” value ([4]; rat, in vivo, 720 mg/kg) was “significantly decreased”, the “Blood biochemistry: ALT (alanine aminotransferase)” value ([4]; rat, in vivo, 720 mg/kg) was “no statistical differences” and the “Blood biochemistry: BUN, CHOL, CREA, TBIL, TP and AST” value ([4]; rat, in vivo, 720 mg/kg) was “significantly increased”. The “Hematology: WBC, Neut, Lymph, EO and RET” value ([4]; rat, in vivo, 720 mg/kg) was “significantly decreased”, the “Relative organ coefficient of the thymus and spleen” value ([4]; rat, in vivo, 720 mg/kg) was “significantly reduced” and the “absolute wet weight of the adrenal gland” value ([4]; rat, in vivo, 720 mg/kg) was “significantly increased”. For the same molecule, the “absolute wet weight of the thymus, heart, lung and spleen” value ([4]; rat, in vivo, 720 mg/kg) was “significantly decreased”, the food intake ([4]; rat, in vivo, 720 mg/kg) was “significantly reduced” and the “relative organ coefficient of the brain, liver, lung, kidney, and adrenal gland” value ([4]; rat, in vivo, 720 mg/kg) was “significantly increased”. The “potential toxic target organs” value ([4]; rat, in vivo, po) was “marrow hematopoietic system, thymus, heart, liver, lung, spleen, adrenal gland, ovary, and digestion system” and the IC50 (monkey GnRHr) was 78.6 nM.

For COc1cccc(-c2c(C)n(Cc3c(F)cccc3C(F)(F)F)c(=O)n(C[C@H](NCCCC(=O)O)c3ccccc3)c2=O)c1F [elagolix, Elagolix], the serum estrogen level [5] is listed as “lower than that of the leuprorelin treatment group and placebo group”.
